Measurements from paper PMC9820345, “Metal Complexes of a 5-Nitro-8-Hydroxyquinoline-Proline Hybrid with Enhanced Water Solubility Targeting Multidrug Resistant Cancer Cells” (International Journal of Molecular Sciences, 2022).

Key:
[1] = Cyclic voltammetry of the iron complexes; format: physicochemical; details: for E1/2 vs. NHE: iron(III/II)-ligand (1:3), pH 7.40
[2] = test system: tested cancer cell lines (MES-SA, MES-SA/Dx5, Colo205, Colo320); assay: In vitro cytotoxicity, summary over the tested cancer cell lines; format: cell-based; details: Homo sapiens, range over MES-SA
Description: The in vitro cytotoxicity of HQNO2-L-Pro and its RuCym and RhCp* complexes was assayed in two chemosensitive and resistant cell pairs to reveal their potential MDR selective toxicity. On the one hand, the parental human uterine sarcoma MES-SA cell line and its P-gp positive MDR derivative MES-SA/Dx5 cell line were applied; on the other hand, the human colon adenocarcinoma Colo205 cell line and its doxorubicin-resistant counterpart, the Colo320 cell line, were involved. The determined IC50 values using 72 h (Colo205 and Colo320) or 144 h incubation time (MES-SA and MES-SA/Dx5) are shown in Table 4. Doxorubicin was used as a control, and IC50 values obtained for the analogous HQCl-L-Pro compounds are also shown for comparison. […] The lower cytotoxicity of HQNO2-L-Pro is most likely due to its very strong hydrophilic features.
Inhibition of the cell growth (expressed as IC50: inhibitory concentration that reduces by 50% the growth of the cells exposed to the tested compounds) was determined from the sigmoid curve where 100 − ((ODsample − ODmedium control)/(ODcell control − ODmedium control)) × 100 values were plotted against the logarithm of compound concentrations. […]

SMILES: O=C(O)[C@@H]1CCCN1Cc1cc([N+](=O)[O-])c2cccnc2c1O [HQNO2-L-Pro, (2S)-1-((8-hydroxy-5-nitroquinolin-7-yl)methyl)pyrrolidin-1-ium-2-carboxylate]
- E1/2 vs. NHE ([1]; scan rate 0.005 V/s): +0.207 V
- E1/2 vs. NHE ([1]; scan rate 0.010 V/s): +0.216 V
- E1/2 vs. NHE ([1]; scan rate 0.015 V/s): +0.218 V
- E1/2 vs. NHE ([1]; scan rate 0.020 V/s): +0.217 V
- E1/2 vs. NHE ([1]; scan rate 0.025 V/s): +0.214 V
- formal potential E'1/2 of the Fe(III)/Fe(II) redox pair of the iron complexes ([1]; pH 7.4, 1:3 metal-to-ligand ratio, ciron = 0.5 mM): +215 ± 5 mV vs. NHE
- IC50 [2]: 32.4 to 226 µM
